Experimental findings from US20230235397A1, “METHODS FOR CLASSIFICATION AND TREATMENT OF PSYCHOTIC DISORDER SUBJECTS” (CENTRE HOSPITALIER UNIVERSITAIRE VAUDOIS (CHUV), priority 2019, published 2023) are described below.

The subject of this test is Gclm-KO+GBR mice. Put plainly: MitoQ treatment of Gclm-KO+GBR mice (oxidative stress model), markers in anterior cingulate cortex. The class given is in vivo. An excerpt:
Treatment with MitoQ (P21-P40) in Gclm-KO mice treated with GBR12909 normalizes NIX, FUNDC1 and LC3B expression levels as well as miR-137 expression intensity when compared to values observed for wild-type mice (FIG. 7). […] Thus, MitoQ has been unexpectedly found to be useful in reversing the miR-137 overexpression, mitophagy and parvalbumin interneuron impairment induced by oxidative stress.
Example 9 relates to an animal model of oxidative stress. Oxidative stress elicits mitophagy in the anterior cingulated cortex (ACC) of Gclm-KO mice (transgenic mice carrying permanent defect in glutathione GSH synthesis). […] Because extranuclear localization of 8-oxo-dG labeling was observed, it could be surmised that mitochondrial DNA (mtDNA) was affected. […] In comparison with WT mice (Gclm-WT+PBS, wherein PBS refers to phosphate-buffered saline, a common buffer used in these experiments as vehicle), levels of the mitophagy receptors NIX and FUNDC1 and of the autophagosome LC3B were reduced in the ACC of Gclm-KO mice (Gclm-KO+PBS, at P40). […] Taken together, these observations are consistent with an oxidative stress-induced mitophagy deficit in prefrontal parvalbumin interneurons.
It has been shown that miR-137 plays a functional role in modulating synaptic function and in regulating the expression of the NIX and FUNDC1 mitophagy receptors.
In view of the detrimental effects of oxidative stress on integrity of parvalbumin interneurons, miR-137 expression level as well as mitophagy during preweaning and pubertal stages of development, it was evaluated whether MitoQ treatment, a selective mitochondria targeted-antioxidant, could rescue these deficits in young KO mice. Treatment with MitoQ (P21-P40) in Gclm-KO+GBR mice normalized NIX, FUNDC1 and LC3B expression levels as well as miR-137 expression intensity, when compared to WT values (FIG. 7). […] Thus, MitoQ can reverse the oxidative stress induced miR-137 overexpression, mitophagy and parvalbumin interneuron impairment, highlighting that the upregulation of miR-137 and subsequent mitophagy defect constitutes the molecular mechanism underlying the oxidative stress-induced parvalbumin interneuron impairment.

[1] abbreviates: ACC of Gclm-KO+GBR animals, following treatment with MitoQ.
Where [2] appears, read: MitoQ P21-P40, Gclm-KO+GBR mice, ACC, compared to WT values (FIG. 7).

`COC1=C(OC)C(=O)C(CCCCCCCCCC[PH](c2ccccc2)(c2ccccc2)c2ccccc2)=C(C)C1=O` [MitoQ, mitoquinone]: under setting [1], the “abnormalities in cell body numbers of parvalbumin interneurons” value is “restored to WT levels” and the “staining intensity of parvalbumin interneuron processes” value was “restored to WT levels”. Moreover, under setting [2], the FUNDC1 expression level entry was “normalized”, the LC3B expression level entry is “normalized”, the NIX expression level entry was “normalized” and the miR-137 expression intensity entry is given as “normalized”.
